Data published in ChEMBL document CHEMBL1201862, “PubChem BioAssay data set” (2004).
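Grown in 96-well plates, cells were treated for 48 hours with each compound at five concentrations. Insufficient inhibition: endpoint recorded as highest concentration tested. GI50 marks 50% less growth.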 Active and inactive are the calls of the source. No stated cut-off is given here; in the data, active = GI50 up to about 1.1 µM and inactive = higher.

What was measured:
Experiment in all cases: NCI tumour cell line growth inhibition, 48 h
HCC 2998 = test system: HCC 2998
NCI/ADR-RES = test system: NCI/ADR-RES
786-0 = test system: 786-0
IGROV-1 = test system: IGROV-1
HL-60 = test system: HL-60
SN12C = test system: SN12C
T47D = test system: T47D
SK-MEL-2 = test system: SK-MEL-2
UACC-62 = test system: UACC-62
RXF 393 = test system: RXF 393
A498 = test system: A498
A549 = test system: A549
MOLT-4 = test system: MOLT-4
PC-3 = test system: PC-3
SF-295 = test system: SF-295
Hs-578T = test system: Hs-578T
KM12 = test system: KM12
OVCAR-8 = test system: OVCAR-8
DU-145 = test system: DU-145
RPMI-8226 = test system: RPMI-8226
NCI-H522 = test system: NCI-H522
NCI-H23 = test system: NCI-H23
COLO 205 = test system: COLO 205
CCRF-CEM = test system: CCRF-CEM
K562 = test system: K562
SK-MEL-5 = test system: SK-MEL-5
UO-31 = test system: UO-31
SNB-75 = test system: SNB-75
SNB-19 = test system: SNB-19
HCT-15 = test system: HCT-15
Malme-3M = test system: Malme-3M
SW-620 = test system: SW-620
NCI-H460 = test system: NCI-H460
M14 = test system: M14
HOP-92 = test system: HOP-92
EKVX = test system: EKVX
MDA-MB-231 = test system: MDA-MB-231
MDA-N = test system: MDA-N
SR = test system: SR
OVCAR-4 = test system: OVCAR-4
HOP-62 = test system: HOP-62
OVCAR-3 = test system: OVCAR-3
UACC-257 = test system: UACC-257
LOX IMVI = test system: LOX IMVI
HCT-116 = test system: HCT-116
SF-268 = test system: SF-268
U-251 = test system: U-251
CAKI-1 = test system: CAKI-1
SK-MEL-28 = test system: SK-MEL-28
NCI-H226 = test system: NCI-H226
MCF7 = test system: MCF7
OVCAR-5 = test system: OVCAR-5
SK-OV-3 = test system: SK-OV-3
MDA-MB-435 = test system: MDA-MB-435
ACHN = test system: ACHN
BT-549 = test system: BT-549
HT-29 = test system: HT-29
TK-10 = test system: TK-10
SF-539 = test system: SF-539

COC(=O)C(CCSC)NC(=O)Cc1ccc(C(=O)c2ccccc2)cc1 (centres undefined)
GI50 (HCC 2998): > 100 µM (inactive) | GI50 (NCI/ADR-RES): 26.7 µM (inactive) | GI50 (786-0): > 100 µM (inactive) | GI50 (IGROV-1): 64.3 µM (inactive) | GI50 (HL-60): 32.7 µM (inactive) | GI50 (SN12C): 50.1 µM (inactive) | GI50 (T47D): 59.2 µM (inactive) | GI50 (SK-MEL-2): 48.6 µM (inactive) | GI50 (UACC-62): 51.2 µM (inactive) | GI50 (RXF 393): > 100 µM (inactive) | GI50 (A498): > 100 µM (inactive) | GI50 (A549): 38.4 µM (inactive) | GI50 (MOLT-4): 55 µM (inactive) | GI50 (PC-3): 56.8 µM (inactive) | GI50 (SF-295): 42.5 µM (inactive) | GI50 (Hs-578T): 33.1 µM (inactive) | GI50 (KM12): 25.9 µM (inactive) | GI50 (OVCAR-8): 73.3 µM (inactive) | GI50 (DU-145): 86.9 µM (inactive) | GI50 (RPMI-8226): 46.5 µM (inactive) | GI50 (NCI-H522): 57.8 µM (inactive) | GI50 (NCI-H23): 44.8 µM (inactive) | GI50 (COLO 205): > 100 µM (inactive) | GI50 (CCRF-CEM): 42.5 µM (inactive) | GI50 (K562): 37.8 µM (inactive) | GI50 (SK-MEL-5): 32.5 µM (inactive) | GI50 (UO-31): 53.7 µM (inactive) | GI50 (SNB-75): 40.6 µM (inactive) | GI50 (SNB-19): 82.6 µM (inactive) | GI50 (HCT-15): 36.1 µM | GI50 (Malme-3M): > 100 µM (inactive) | GI50 (SW-620): 42.4 µM (inactive) | GI50 (NCI-H460): 34.7 µM (inactive) | GI50 (M14): 35.5 µM (inactive) | GI50 (HOP-92): 41.8 µM (inactive) | GI50 (EKVX): 39.2 µM (inactive) | GI50 (MDA-MB-231): 37.3 µM (inactive) | GI50 (MDA-N): 14.9 µM (inactive) | GI50 (SR): 31.3 µM (inactive) | GI50 (OVCAR-4): > 100 µM (inactive) | GI50 (HOP-62): 88.1 µM (inactive) | GI50 (OVCAR-3): 67.6 µM (inactive) | GI50 (UACC-257): > 100 µM (inactive) | GI50 (LOX IMVI): 55.7 µM (inactive) | GI50 (HCT-116): 39.7 µM (inactive) | GI50 (SF-268): > 100 µM (inactive) | GI50 (U-251): 34.6 µM (inactive) | GI50 (CAKI-1): 70.3 µM (inactive) | GI50 (SK-MEL-28): > 100 µM (inactive) | GI50 (NCI-H226): 78.5 µM (inactive) | GI50 (MCF7): 47.3 µM (inactive) | GI50 (OVCAR-5): > 100 µM (inactive) | GI50 (SK-OV-3): 40.4 µM (inactive) | GI50 (MDA-MB-435): 29.1 µM (inactive) | GI50 (ACHN): > 100 µM (inactive) | GI50 (BT-549): 29 µM (inactive) | GI50 (HT-29): 25.8 µM (inactive)

C=C1C(C2(C)C(OC(C)=O)CC(=O)OC(C)(COC(C)=O)C2CC(=O)OC)C(OC=O)C(OC(=O)C(O)C(C)CC)C2(C)C(c3ccoc3)CC(=O)C12O (centres undefined)
GI50 (HCC 2998): 0.16 µM (active) | GI50 (NCI/ADR-RES): 45.9 µM (inactive) | GI50 (786-0): 5.98 µM (inactive) | GI50 (IGROV-1): 2.52 µM (inactive) | GI50 (HL-60): 0.157 µM (active) | GI50 (SN12C): 10.8 µM (inactive) | GI50 (T47D): > 57.7 µM (inactive) | GI50 (SK-MEL-2): > 31.4 µM (inactive) | GI50 (UACC-62): > 30.7 µM (inactive) | GI50 (RXF 393): 2.7 µM (inactive) | GI50 (A498): 4.52 µM (inactive) | GI50 (A549): 3.56 µM (inactive) | GI50 (MOLT-4): > 100 µM (inactive) | GI50 (PC-3): 5.52 µM (inactive) | GI50 (SF-295): 4.32 µM (inactive) | GI50 (Hs-578T): 8.05 µM (inactive) | GI50 (KM12): 3.23 µM (inactive) | GI50 (OVCAR-8): 10.2 µM (inactive) | GI50 (DU-145): 5.46 µM (inactive) | GI50 (RPMI-8226): > 100 µM (inactive) | GI50 (NCI-H522): 0.83 µM (active) | GI50 (NCI-H23): > 73.5 µM (inactive) | GI50 (COLO 205): 3.66 µM (inactive) | GI50 (CCRF-CEM): 0.65 µM (active) | GI50 (K562): 4.49 µM (inactive) | GI50 (SK-MEL-5): 2.94 µM (inactive) | GI50 (UO-31): 3.77 µM (inactive) | GI50 (SNB-75): 3.57 µM (inactive) | GI50 (HCT-15): 4.8 µM | GI50 (SW-620): 2.08 µM (inactive) | GI50 (NCI-H460): 2.65 µM (inactive) | GI50 (M14): > 23.8 µM (inactive) | GI50 (TK-10): 17.4 µM (inactive) | GI50 (HOP-92): 7.35 µM (inactive) | GI50 (EKVX): 6.32 µM (inactive) | GI50 (MDA-MB-231): 4.69 µM (inactive) | GI50 (MDA-N): 7.26 µM (inactive) | GI50 (SR): 5.36 µM (inactive) | GI50 (OVCAR-4): 6.28 µM (inactive) | GI50 (HOP-62): 7.43 µM (inactive) | GI50 (OVCAR-3): > 42.7 µM (inactive) | GI50 (UACC-257): > 100 µM (inactive) | GI50 (LOX IMVI): 3.82 µM (inactive) | GI50 (HCT-116): 1.58 µM (inactive) | GI50 (SF-268): 3.72 µM (inactive) | GI50 (U-251): 3.86 µM (inactive) | GI50 (CAKI-1): 3.27 µM (inactive) | GI50 (SF-539): 4.42 µM (inactive) | GI50 (SK-MEL-28): 10.8 µM (inactive) | GI50 (NCI-H226): 16.7 µM (inactive) | GI50 (MCF7): > 25.5 µM (inactive) | GI50 (OVCAR-5): > 100 µM (inactive) | GI50 (SK-OV-3): 0.78 µM (active) | GI50 (MDA-MB-435): 6.61 µM (inactive) | GI50 (ACHN): 4.2 µM (inactive) | GI50 (BT-549): 4.33 µM (inactive) | GI50 (HT-29): 3.42 µM (inactive)
